Experimental data taken from patent publication US7524849B2, “5-arylpyrimidines as anticancer agents” (Wyeth Holdings Corporation, priority 2003, dated 2009).
Marks after values point to notes of the source that are not given here.

What was measured:
[1] = test system: U87-MG Human Glioblastoma; assay: Human tumor xenograft test, U87-MG glioblastoma; format: in vivo, athymic mice; conditions: for T/C on day 0 / T/C on day 3 / T/C on day 7 / T/C on day 10: schedule day 1, U87-MG
[2] = test system: polymerized tubulin (microtubules); assay: Competitive binding test, [3H]paclitaxel; set-up: species or system bovine; conditions: competitor 20 μM (5 μM for unlabeled paclitaxel)
Description: Medium is RPMI-1640 with L-glutamine, supplemented with 10% heat-inactivated fetal calf serum, 100 units/mL penicillin, and 100 μg/mL streptomycin (Gibco, Grand Island, N.Y.). Microtubule-associated protein (MAP)-rich tubulin, containing about 70% tubulin and 30% MAPs (#ML113), and highly purified tubulin (>99% pure, #TL238), both from bovine brain, are obtained from Cytoskeleton, Inc., Denver, Colo. PEM buffer (80 mM piperazine-N,N′-bis[2-ethanesulfonic acid], pH 6.9, 1 mM ethylene glycol-bis(β-aminoethyl ether)-N,N,N′,N′-tetraacetic acid, 1 mM magnesium chloride) and guanosine 5′-triphosphate (GTP) are also obtained from Cytoskeleton. […] [^3H]vinblastine, specific activity 9.60 Ci/mmol and MicroSpin G-50 columns are obtained from Amersham Biosciences (Piscataway, N.J.). […] Other reagents are obtained from Sigma (St. Louis, Mo.).
The binding of examples of this invention to highly purified tubulin is studied by competitive inhibition methods.
The reactions are then centrifuged at top speed in an Eppendorf 5415C microfuge for 20 min at room temperature in order to pellet the microtubule protein. Triplicate aliquots of each supernatant are mixed with scintillation fluid and counted in a liquid scintillation spectrometer. […] The ability of each competitor to inhibit radioligand binding to pelleted protein is expressed as a percent of controls without any competitor.

[3] = U87-MG glioblastoma, intravenously on day 1 with 5 mg/kg

CNCCCOc1cc(F)c(-c2c(Cl)nc(-c3cnccn3)nc2N[C@@H](C)C(F)(F)F)c(F)c1.Cl [Example 24a, 6-Chloro-5-{2,6-difluoro-4-[3-(methylamino)propoxy]phenyl}-2-pyrazin-2-yl-N-[(1S)-2,2,2-trifluoro-1-methylethyl]pyrimidin-4-amine hygrogen chloride]
T/C on day 0 ([1]; 1 mg/kg IV): 1.03 | T/C on day 3 ([1]; 1 mg/kg IV): 0.71* | T/C on day 7 ([1]; 1 mg/kg IV): 0.75 | T/C on day 10 ([1]; 1 mg/kg IV): 0.86 | T/C on day 0 ([1]; 5 mg/kg IV): 1.04 | T/C on day 3 ([1]; 5 mg/kg IV): 0.41** | T/C on day 7 ([1]; 5 mg/kg IV): 0.21** | T/C on day 10 ([1]; 5 mg/kg IV): 0.17** | T/C on day 0 ([1]; 10 mg/kg IV): 1.04 | T/C on day 3 ([1]; 10 mg/kg IV): 0.31** | T/C on day 7 ([1]; 10 mg/kg IV): Toxic | compound toxicity [1, 3]: some compound toxicity is also observed | growth of xenografts [1, 3]: inhibits the growth

CC(=O)O[C@H]1C(=O)[C@@]2(C)[C@H]([C@H](OC(=O)c3ccccc3)[C@]3(O)C[C@H](OC(=O)[C@H](O)[C@@H](NC(=O)c4ccccc4)c4ccccc4)C(C)=C1C3(C)C)[C@]1(OC(C)=O)CO[C@@H]1C[C@@H]2O [Paclitaxel, reference compound]
[3H]Paclitaxel binding, Mean [2]: 35 % of control
